The values below come from patent publication US10012655B2, “Method for quantitating total HMGB1 protein in biological samples” (INSTITUT PASTEUR, priority 2008, dated 2018).

The subject of experiment [1] is iDCs. As to the kind of experiment: aNK-induced apoptosis of iDCs at NK:DC ratio 5:1 (7-AAD assay). In kind it is cell-based, human.
Method: (a) CD56^+ NK cells were purified from the blood of healthy donors. NK cells were maintained in culture with suboptimal concentrations of interleukin-2 (IL-2) (100 ng/ml) (rNK cells) or activated (aNK cells) by the addition PHA (10 μg/ml) and IL-2 (10 μg/ml) to cultures. […] Data represent the mean±sd of three independent experiments. […] In some cases, iDCs were cocultured with aNK cells at the NK:DC ratio of 5:1. […] Cell death was then quantified with the 7-AAD assay. […] (g) iDCs were cultured for 24 h either alone or with aNK cells (NK:DC ratio of 5:1), in the absence or presence of blocking anti-DR4 antibodies (250 ng/ml). The viability status of DCs was determined by flow cytometry with the 7-AAD assay. […]
FIGS. 11(a)-(b). […] Cell death was then quantified with the 7-AAD assay. […]
rNK or aNK were cocultured during 24 h with iDCs or mDCs at a ratio of 1:5 (2×105 NK+10×105 DC/1 ml), unless otherwise indicated. DC survival was determined with the 7-AAD assay, as described previously55. […]
Immature DCs (iDCs) were prepared from sorted monocytes from healthy donors, cultured for 6 days in the presence of IL-4 and GM-CSF. […] The influence of NK-DC interaction on DC's maturation and apoptosis was analyzed using multiparametric flow cytometry, combining 7-AAD staining with membrane and intracellular staining with mAbs specific for HLA-DR, DC-SIGN, CD83, CD86, DR4, mTRAIL, etc.
Another experiment relates to R5-HIV-1Ba-L. The experiment in a line: HIV-1 replication in infected iDCs, p24 ELISA in culture supernatant. It is filed as cell-based. The following applies: inhibitor 10 μg/ml, 3 days. On the procedure: FIGS. 6 (a), (b) and (c). Exogenous rh-HMGB1 triggers HIV-1 and HIV-2 replication in iDC. (a) HIV-1-infected iDC were cultured alone or in the presence of aNK cells for 3 days. Rh-HMGB1 (1 μg/ml) was added in some cultures. HIV replication was measured by p24 quantification in culture supernatant (b) HIV1-infected iDC were cultured alone or in the presence of aNK cells for 3 days. Blocking anti-HMGB1 antibodies (10 μg/ml) or glycyrrhizin (10 μg/ml) were added at culture initiation. HIV replication was measured by p24 quantification in culture supernatant. The mean±sd of three independent experiments is shown. Statistical comparisons were made with the non parametric Mann-Whitney test. * p<0.05; (c) HIV-2-infected iDC were cultured alone or in the presence of aNK cells for 3 days. Rh-HMGB1 (1 μg/ml) was added in some cultures. HIV replication was measured by p24 quantification in culture supernatant.
Virus stock preparation was prepared by amplification of R5-HIV-1Ba-L on MDM from healthy donors. Viral stock was then clarified by centrifugation prior to determination of HIV1 p24 concentration. iDCs were plated in 96-well culture plates at 200,000 cells/well and incubated for 3 hours at 37° C. in a 5% CO2 atmosphere with R5-HIV-1BAL at various concentrations (0.001 to 10 ng p24/ml). Cells were harvested, washed four times with media containing 10% FCS and, when indicated, rNK or aNK cells were added at a NK:DC ratio of 1:5, unless otherwise indicated. NK-DC cocultures lasted 24 h before analysis of the maturation stage of DCs and/or quantification of viral production. In some experiments (FIG. 6), HIV-1 infected iDCs were incubated alone or with aNK cells for 3 days, in the presence of rh-HMGB1 (1 μg/ml) (R&DSystems), and in some cultures in the presence of rabbit antiHMGB1 Abs (10 μg/ml) (Abcam, Cambridge, UK) or Glycyrrhizin (10 μg/ml).
The concentration of HIV-1 in the supernatant of infected cell cultures was determined by measuring the amount of p24 protein by ELISA (Ingen, Belgium). DNA from cells was extracted using the GIAamp DNA Blood Mini Kit (Qiagen, Basel, Switzerland) and quantified HIV-1 proviral load by RT-PCR as described previously54. The frequency of HIV-1-infected cells was determined by flow cytometry to detect intracellular p24 molecule. Cells were surface stained with antibodies specific for CD40 (BD Biosciences, San Jose, Calif.) to target DC and intracellular stained with p24-specific antibodies (Coulter). Stained cells were fixed in 1% PFA, immediately acquired on a FACScalibur (Becton Dickinson) and analyzed with FlowJo software. In some experiments infected DCs were imaged, after immunofluorescence, by laser scanning confocal microscopy.
For orientation: ELISA stands for enzyme-linked immunosorbent assay.

The test system of experiment [2] is iDCs. As to the kind of experiment: aNK-dependent maturation of iDCs in 24 h aNK-iDC coculture (CD86/HLA-DR flow cytometry). In kind it is cell-based, human. To be noted: uninfected iDCs, inhibitor 10 μg/ml added at initiation. How it is done:
FIG. 3 (a)-(e). aNK-dependent maturation of HIV-1-infected iDCs is mediated by HMGB1 and involves RAGE. (a) Left panel: iDCs were cultured for 24 h either alone or with aNK cells, in the presence of blocking anti-HMGB1 antibodies (10 μg/ml) or glycyrrhizin (10 μg/ml). The maturation status of DCs was determined by flow cytometry with CD86 and HLA-DR—specific antibodies. Right panel: same experiment, but performed with HIV-1 infected iDCs. Data represent mean±sd of at least three independent experiments, and statistical comparisons were made with the non parametric Mann-Whitney test. * p<0.05. (b) iDC (10^6 cells/ml) were cultured for 48 h with increasing concentrations (1-10 μg/ml) of rh-HMGB1. Cells were then stained with anti-CD86, -HLA-DR, -CD80, -CD83, DC-LAMP and -CD40 antibodies and analyzed by flow cytometry. (c) Influence of rh-HMGB1 on cytokine and chemokine production (determined by MAP) by DCs. iDCs (10^6 cells/ml) were incubated for 48 h in medium or in presence of rh-HMGB1 (1 or 10 μg/ml). As a positive control, iDCs were stimulated with LPS (DC0). […] (e) iDC, DC0, uninfected or HIV-1-infected iDC cocultured for 24 h with aNK cells, were incubated with rh-HMGB1 (1 μg/ml) and subsequently stained with anti-RAGE antibodies and analyzed by flow cytometry. […]
(A flow cytometer gives signals particle by particle.)

Another experiment deals with HIV-infected DCs. The experiment in a line: TRAIL-induced apoptosis of iDCs and HIV-infected DCs (7-AAD assay). The following applies: 24 h with 1-1000 ng/ml rhs-TRAIL. It is filed as cell-based, human. On the procedure:
FIGS. 10(a)-(d). R5-HIV-infected DCs are resistant to killing by aNK cells, although TRAIL secretion persists in the presence of HIV-1 (a) iDCs were either infected with R5-HIV-1BaL (1 ng/ml of p24) for 24 h or uninfected, and after several washes, they were incubated with aNK cells at the ratios of 1:5 and 5:1. iDCs viability was assayed with the 7-AAD test by flow cytometry. Living cells are 7-AAA^−, apoptotic cells 7-AAD^+, and apoptotic debris are 7-AAD^−FSC^low. Dot plots represent one of at least three independent experiments. […] DCs were uninfected (iDCs), infected with R5-HIV-1 at 1 ng/ml of p24 (HIV-DCs) or stimulated with LPS for 48 h. Cells were then stained with CD86 and HLA-DR. Data represent one of at least three independent experiments. (c) TRAIL secretion is not affected by HIV infection of iDCs. 24 h cell-free culture supernatants of iDCs, HIV-infected DCs (10^6/ml), aNK cells-iDCs cocultures (ratio 5:1) and aNK cells-HIV-infected DCs cocultures (ratio 5:1) were tested for soluble TRAIL (sTRAIL) content by ELISA. Data represent the mean±sd of three independent experiments. […] Cell death was then quantified with the 7-AAD assay. The mean±sd of three independent experiments was presented.

On to `C/C=C/[C@H]1O[C@@](O)([C@@H](C)[C@H](O)[C@H](C)[C@H]2OC(=O)/C(OC)=C/C(C)=C/[C@@H](C)[C@@H](O)[C@@H](CC)[C@@H](O)[C@H](C)C/C(C)=C/C=C/[C@@H]2OC)C[C@@H](O[C@H]2C[C@@H](O)[C@H](OC(N)=O)[C@@H](C)O2)[C@@H]1C` [Concanamycin A], for which, in the experiment on iDCs [1] (uninfected iDCs, aNK cells, NK:DC ratio 5:1, 24 h), the “NK-dependent iDCs apoptosis” value is “no effect”.

`CC1(C)[C@@H](O[C@H]2O[C@H](C(=O)O)[C@@H](O)[C@H](O)[C@H]2O[C@@H]2O[C@H](C(=O)O)[C@@H](O)[C@H](O)[C@H]2O)CC[C@]2(C)[C@H]3C(=O)C=C4[C@@H]5C[C@@](C)(C(=O)O)CC[C@]5(C)CC[C@@]4(C)[C@]3(C)CC[C@@H]12` [glycyrrhizin, reference compound]: the “HIV-1 production (p24 in supernatant)” value in the experiment with R5-HIV-1Ba-L (infected DC cocultured with aNK cells) and with R5-HIV-1Ba-L (infected DC cultured alone) was “abrogated HIV-1 production” each time. In the experiment on iDCs [1] (HIV-1-infected iDCs, NK:DC ratio 5:1, AZT added at infection, inhibitors at coculture initiation), the “resistance of HIV-1-infected iDCs to aNK-induced apoptosis (inhibition assays)” value is “found dependent on HMGB1”. The “proportions of mature DCs (CD86bright HLA-DRbright)” value in the experiment with iDCs [2] is recorded as “reduced the proportions of mature DCs (identified as CD86brightHLA-DRbright) to the baseline level observed without aNK cells”.

B1: rhs-TRAIL: recombinant human soluble TRAIL (protein, UniProt P50591 39-281, looked up)
extracellular domain: TNELKQMQDKYSKSGIACFLKEDDSYWDPNDEESMNSPCWQVKWQLRQLVRKMILRTSEETISTVQEKQQNISPLVRERGPQRVAAHITGTRGRSNTLSSPNSKNEKALGRKINSWESSRSGHSFLSNLHLRNGELVIHEKGFYYIYSQTYFRFQEEIKENTKNDKQMVQYIYKYTSYPDPILLMKSARNSCWSKDAEYGLYSIYQGGIFELKENDRIFVSVTNEHLIDMDHEASFFGAFLVG
modifications: extracellular domain
Consider B1, for which, in the experiment with HIV-infected DCs, the “cell death of HIV-1-infected DCs” value is listed as “still susceptible to TRAIL-induced apoptosis”.
